Measured values: US20240190841A1, “MODULATORS OF BCL6 PROTEOLYSIS AND ASSOCIATED METHODS OF USE” (Arvinas Operations, Inc., priority 2022, published 2024)
Values belong to the molecule of their own block, whether it stands above or below them.

Target: T1, BCL6 (Homo sapiens, UniProt P41182)
T1 construct: endogenous in cells; host or cells: T47D breast cancer epithelial cells
Experiment: Immunofluorescence high content imaging of BCL6 degradation in T47D cells
Format: cell-based
Settings: T47D breast cancer epithelial cells, 3 days incubation
Description: Immunofluorescence Protocol for High Content Imaging of BCL6
T47D cells were seeded in 100 μl volume of RPMI11640-10% FBS in a 96-well black/clear bottom plates for adherent lines (Corning #3904).
Day 1. T47D breast cancer epithelial cells were seeded at a density so that confluence is ˜70-90% at endpoint. Cells were seeded at 7K/0.1 mL/well the morning prior to the addition of exemplary bifunctional degradation compounds.
Day 2. Prepare an 11 point 3-fold serial dilution of exemplary bifunctional compound in DMSO and aliquot an appropriate volume to cell growth media to generate a 2× final concentration of exemplary bifunctional compound. Add an equal volume (0.1 ml) of 2× exemplary bifunctional compound/media mix to previously plated cells, for a final top concentration in aqueous cell growth media of 0.1 or 1 μM. Incubate for 3 days at 37° C., 5% CO2.
Day 5 Immunofluorescence. Discard cell media. Wash wells with 200 μl of room temperature phosphate-buffered saline (PBS). Prepared 4% paraformaldehyde (PFA) from 16% PFA (Electron Microscopy Sciences #15710) using 1×PBS. Fifty μL of 4% PF was added to each well and incubate for 15 minutes at room temperature to fix the cells. The PFA was aspirated and the cells washed twice with PBS (200 μL)).
Prepared 0.1% Triton X-100 in PBS using 10% triton X-100 stock. The cells were permeabilized by adding 100 μL of the 0.1% Triton X-100 in PBS to each well to permeabilize cells and incubating at room temperature for 15 minutes. Cells were washed twice with PBS.
Prepared 3% BSA/PBS (from Thermofisher #37515 Blocker BSA in TBS, 10%), and 100 μL was added to each well. The cells were incubated for at least 1 hour at room temperature.
Prepared 1% BSA/PBS using Blocker BSA/PBS, and the 3% BSA/PBS removed from the wells.
For no primary antibody controls, 50 μL 1% BSA/PBS was added.
Primary antibody (BCL6 Rb Ab, CST-14895, Cell Signaling) was diluted 1:300 in 1% BSA/PBS using Blocker BSA/PBS.
Fifty μl of primary antibody added to all remaining wells (i.e., all wells other than the primary antibody controls) and the cells were incubated overnight at 4° C. with slow orbital movement.
Day 6. Contents of the wells was removed and the cells washed four times with 200 μL PBS. 1% BSA/PBS was prepared using Blocker BSA in PBS.
Diluted secondary antibody goat anti-Rb IgG Alexa-488 1:1000, and cell mask-Alexa-647 1:3000 in 1% BSA/PBS in the same mix. Add 50 μL to each well and incubate at room temperature for 1 hour in the dark.
Cells were washed three times with 200 μL PBS, and then incubated for 10 minutes with 100 μL Hoechst dye at 1 μg/mL (20 mM stock) to stain cell nuclei. Wells were then washed with 200 μl PBS, and 100 μL of PBS was added to each well and the plate covered plate with a plastic opaque cover. Plates were stored at […] and covered in aluminum foil until imaged.
Plates were equilibrated to room temperature prior to reading. The bottom of the plate was wiped with 70% isopropanol immediately prior to imaging.
Imaging: • 10×, 4 fields/well, include Top hat smoothing in the analysis protocol.
Supplies/Reagents: • 16% paraformaldehyde: Electron Microscopy Sciences #15710 • Hoechst: Thermofisher #62249 • Blocker BSA in PBS, 10%: Thermofisher #37515 • Blocker BSA in TBS, 10%: Thermofisher #37520 • Goat anti-rabbit or mouse AlexaFluor-488: Thermofisher #A11008 • Cell mask deep red AlexaFluor-647: Thermofisher #C10046 • Wash buffer, PBS: 20×PBS, Thermofisher

Structure (SMILES): CNC(=O)COc1cc2cc(Nc3nc(N4CCC(O[C@H]5C[C@H](N6CCN(c7ccc8c(c7)n(C7CCC(=O)NC7=O)c(=O)n8C)CC6)C5)CC4)ncc3Cl)ccc2n(C(C)C)c1=O (some centres unmarked) [Compound 11, 2-({6-[(5-chloro-2-{4-[(1r,3r)-3-{4-[3-(2,6-dioxopiperidin-3-yl)-1-methyl-2-oxo-2,3-dihydro-1H-1,3-benzodiazol-5-yl]piperazin-1-yl}cyclobutoxy]piperidin-1-yl}pyrimidin-4-yl)amino]-2-oxo-1-(propan-2-yl)-1,2-dihydroquinolin-3-yl}oxy)-N-methylacetamide]
DC50: 10 to 50 nM
Dmax: < 50%

Structure (SMILES): CNC(=O)COc1cc2cc(Nc3nc(N4CCC(O[C@H]5C[C@H](N6CCN(c7ccc8c(c7)n(C(C)C)c(=O)n8C7CCC(=O)NC7=O)CC6)C5)CC4)ncc3Cl)ccc2n(C(C)C)c1=O (some centres unmarked) [Compound 12, 2-({6-[(5-chloro-2-{4-[(1r,3r)-3-{4-[1-(2,6-dioxopiperidin-3-yl)-2-oxo-3-(propan-2-yl)-2,3-dihydro-1H-1,3-benzodiazol-5-yl]piperazin-1-yl}cyclobutoxy]piperidin-1-yl}pyrimidin-4-yl)amino]-2-oxo-1-(propan-2-yl)-1,2-dihydroquinolin-3-yl}oxy)-N-methylacetamide]
DC50: < 10 nM
Dmax: ≥ 70%

Structure (SMILES): CNC(=O)COc1cc2cc(Nc3nc(N4CCC(O[C@H]5C[C@H](N6CCN(c7ccc8c(c7)n(C)c(=O)n8C7CCC(=O)NC7=O)[C@H](C)C6)C5)CC4)ncc3Cl)ccc2n(C(C)C)c1=O (stereo partly drawn) [Compound 13, 2-({6-[(5-chloro-2-{4-[(1r,3r)-3-[(3R)-4-[1-(2,6-dioxopiperidin-3-yl)-3-methyl-2-oxo-2,3-dihydro-1H-1,3-benzodiazol-5-yl]-3-methylpiperazin-1-yl]cyclobutoxy]piperidin-1-yl}pyrimidin-4-yl)amino]-2-oxo-1-(propan-2-yl)-1,2-dihydroquinolin-3-yl}oxy)-N-methylacetamide]
DC50: < 10 nM
Dmax: ≥ 70%

Structure (SMILES): CNC(=O)COc1cc2cc(Nc3nc(N4CCC(O[C@H]5C[C@H](N6CCN(c7cc8c(cn7)n(C7CCC(=O)NC7=O)c(=O)n8C)CC6)C5)CC4)ncc3Cl)ccc2n(C(C)C)c1=O (some centres unmarked) [Compound 14, 2-({6-[(5-chloro-2-{4-[(1r,3r)-3-{4-[3-(2,6-dioxopiperidin-3-yl)-1-methyl-2-oxo-1H,2H,3H-imidazo[4,5-c]pyridin-6-yl]piperazin-1-yl}cyclobutoxy]piperidin-1-yl}pyrimidin-4-yl)amino]-2-oxo-1-(propan-2-yl)-1,2-dihydroquinolin-3-yl}oxy)-N-methylacetamide]
DC50: < 10 nM
Dmax: 50 to 70%

Structure (SMILES): CNC(=O)COc1cc2cc(Nc3nc(N4CCC(O[C@H]5C[C@H](N6CCN(c7cc8c(cc7OC)n(C7CCC(=O)NC7=O)c(=O)n8C)CC6)C5)CC4)ncc3Cl)ccc2n(C(C)C)c1=O (some centres unmarked) [Compound 15, 2-({6-[(5-chloro-2-{4-[(1r,3r)-3-{4-[1-(2,6-dioxopiperidin-3-yl)-6-methoxy-3-methyl-2-oxo-2,3-dihydro-1H-1,3-benzodiazol-5-yl]piperazin-1-yl}cyclobutoxy]piperidin-1-yl}pyrimidin-4-yl)amino]-2-oxo-1-(propan-2-yl)-1,2-dihydroquinolin-3-yl}oxy)-N-methylacetamide]
DC50: < 10 nM
Dmax: 50 to 70%

Structure (SMILES): CNC(=O)COc1cc2cc(Nc3nc(N4CCC(O[C@H]5C[C@H](N6CCN(c7cnc8c(c7)n(C)c(=O)n8C7CCC(=O)NC7=O)CC6)C5)CC4)ncc3Cl)ccc2n(C(C)C)c1=O (some centres unmarked) [Compound 16, 2-({6-[(5-chloro-2-{4-[(1r,3r)-3-{4-[3-(2,6-dioxopiperidin-3-yl)-1-methyl-2-oxo-1H,2H,3H-imidazo[4,5-b]pyridin-6-yl]piperazin-1-yl}cyclobutoxy]piperidin-1-yl}pyrimidin-4-yl)amino]-2-oxo-1-(propan-2-yl)-1,2-dihydroquinolin-3-yl}oxy)-N-methylacetamide]
DC50: < 10 nM
Dmax: 50 to 70%

Structure (SMILES): CNC(=O)COc1cc2cc(Nc3nc(N4CCC(O[C@H]5C[C@H](N6CCN(c7ccc8c(ccn8C8CCC(=O)NC8=O)c7)CC6)C5)CC4)ncc3Cl)ccc2n(C(C)C)c1=O (some centres unmarked) [Compound 17, 2-({6-[(5-chloro-2-{4-[(1r,3r)-3-{4-[1-(2,6-dioxopiperidin-3-yl)-1H-indol-5-yl]piperazin-1-yl}cyclobutoxy]piperidin-1-yl}pyrimidin-4-yl)amino]-2-oxo-1-(propan-2-yl)-1,2-dihydroquinolin-3-yl}oxy)-N-methylacetamide]
DC50: < 10 nM
Dmax: ≥ 70%

Structure (SMILES): CNC(=O)COc1cc2cc(Nc3nc(N4CCC(O[C@H]5C[C@H](N6CCN(c7ccc8c(c7)n(C)c(=O)n8C7CCC(=O)NC7=O)[C@@H](C)C6)C5)CC4)ncc3Cl)ccc2n(C(C)C)c1=O (stereo partly drawn) [Compound 18, 2-({6-[(5-chloro-2-{4-[(1r,3r)-3-[(3S)-4-[1-(2,6-dioxopiperidin-3-yl)-3-methyl-2-oxo-2,3-dihydro-1H-1,3-benzodiazol-5-yl]-3-methylpiperazin-1-yl]cyclobutoxy]piperidin-1-yl}pyrimidin-4-yl)amino]-2-oxo-1-(propan-2-yl)-1,2-dihydroquinolin-3-yl}oxy)-N-methylacetamide]
DC50: < 10 nM
Dmax: ≥ 70%

Structure (SMILES): CNC(=O)COc1cc2cc(Nc3nc(N4CCC(O[C@H]5C[C@H](N6CCN(c7ccc8c(c7C)n(C)c(=O)n8C7CCC(=O)NC7=O)CC6)C5)CC4)ncc3Cl)ccc2n(C(C)C)c1=O (some centres unmarked) [Compound 19, 2-({6-[(5-chloro-2-{4-[(1r,3r)-3-{4-[1-(2,6-dioxopiperidin-3-yl)-3,4-dimethyl-2-oxo-2,3-dihydro-1H-1,3-benzodiazol-5-yl]piperazin-1-yl}cyclobutoxy]piperidin-1-yl}pyrimidin-4-yl)amino]-2-oxo-1-(propan-2-yl)-1,2-dihydroquinolin-3-yl}oxy)-N-methylacetamide]
DC50: < 10 nM
Dmax: ≥ 70%

Structure (SMILES): CNC(=O)COc1cc2cc(Nc3nc(N4CCC(O[C@H]5C[C@H](N6CCN(c7cc8c(cc7C)n(C7CCC(=O)NC7=O)c(=O)n8C)CC6)C5)CC4)ncc3Cl)ccc2n(C(C)C)c1=O (some centres unmarked) [Compound 20, 2-({6-[(5-chloro-2-{4-[(1r,3r)-3-{4-[1-(2,6-dioxopiperidin-3-yl)-3,6-dimethyl-2-oxo-2,3-dihydro-1H-1,3-benzodiazol-5-yl]piperazin-1-yl}cyclobutoxy]piperidin-1-yl}pyrimidin-4-yl)amino]-2-oxo-1-(propan-2-yl)-1,2-dihydroquinolin-3-yl}oxy)-N-methylacetamide]
DC50: < 10 nM
Dmax: ≥ 70%

Structure (SMILES): CNC(=O)COc1cc2cc(Nc3nc(N4CCC(O[C@H]5C[C@H](N6CCN(c7ccc8c(cnn8C8CCC(=O)NC8=O)c7)CC6)C5)CC4)ncc3Cl)ccc2n(C(C)C)c1=O (some centres unmarked) [Compound 21, 2-({6-[(5-chloro-2-{4-[(1r,3r)-3-{4-[1-(2,6-dioxopiperidin-3-yl)-1H-indazol-5-yl]piperazin-1-yl}cyclobutoxy]piperidin-1-yl}pyrimidin-4-yl)amino]-2-oxo-1-(propan-2-yl)-1,2-dihydroquinolin-3-yl}oxy)-N-methylacetamide]
DC50: < 10 nM
Dmax: ≥ 70%

Structure (SMILES): CNC(=O)COc1cc2cc(Nc3nc(N4CCC(O[C@H]5C[C@H](N6CCN(c7ccc8nn(C9CCC(=O)NC9=O)cc8c7)CC6)C5)CC4)ncc3Cl)ccc2n(C(C)C)c1=O (some centres unmarked) [Compound 22, 2-({6-[(5-chloro-2-{4-[(1r,3r)-3-{4-[2-(2,6-dioxopiperidin-3-yl)-2H-indazol-5-yl]piperazin-1-yl}cyclobutoxy]piperidin-1-yl}pyrimidin-4-yl)amino]-2-oxo-1-(propan-2-yl)-1,2-dihydroquinolin-3-yl}oxy)-N-methylacetamide]
DC50: 10 to 50 nM
Dmax: 50 to 70%

DC50: < 10 nM
Dmax: 50 to 70%
Structure (SMILES): CNC(=O)COc1cc2cc(Nc3nc(N4CCC(O[C@H]5C[C@H](N6CCN(c7ccc8c(c7)ncn8C7CCC(=O)NC7=O)CC6)C5)CC4)ncc3Cl)ccc2n(C(C)C)c1=O (some centres unmarked) [Compound 23]
